What was measured:
[1] = (§1) The drug is tested on Z-024 corresponding to pig gut metagenome with ENA study accession number: PRJEB37062 and ENA sample accession number: ERS12561823 for biotransformation under anaerobic condition. The drug concentrations were measured over 9 timepoints collected between 0 and 24 hours of incubation by liquid-chromatography-coupled mass spectrometry (LC–MS); conditions: 2 µM
[2] = as §1, with “Z-016” for “Z-024”, “mouse” for “pig”, “ERS12561815” for “ERS12561823”; conditions: 2 µM
[3] = as §1, with “Z-007” for “Z-024”, “rat” for “pig”, “ERS12561807” for “ERS12561823”; conditions: 2 µM
[4] = as §1, with “WLS-170” for “Z-024”, “human” for “pig”, “ERS12561762” for “ERS12561823”; conditions: 2 µM
[5] = as §1, with “WLS-052” for “Z-024”, “human” for “pig”, “ERS12561747” for “ERS12561823”; conditions: 2 µM
[6] = human gut metagenome, 24 h, 2 µM
[7] = human gut metagenome, 24 h, 2 µM; remark: listed apart in the source
[8] = human gut metagenome, 24 h, 2 µM; remark: listed apart in the source
[9] = human gut metagenome, 24 h, 2 µM; remark: listed apart in the source
[10] = human gut metagenome, 24 h, 2 µM; remark: listed apart in the source
[11] = human gut metagenome, 24 h, 2 µM; remark: listed apart in the source
[12] = human gut metagenome, 24 h, 2 µM; remark: listed apart in the source
[13] = human gut metagenome, 24 h, 2 µM; remark: listed apart in the source
[14] = human gut metagenome, 24 h, 2 µM; remark: listed apart in the source
[15] = human gut metagenome, 24 h, 2 µM; remark: listed apart in the source
[16] = as §1, with “Z-019” for “Z-024”, “rat” for “pig”, “ERS12561818” for “ERS12561823”; conditions: 2 µM
[17] = as §1, with “Z-017” for “Z-024”, “mouse” for “pig”, “ERS12561816” for “ERS12561823”; conditions: 2 µM
[18] = as §1, with “WLS-069” for “Z-024”, “human” for “pig”, “ERS12561748” for “ERS12561823”; conditions: 2 µM
[19] = human gut metagenome, 24 h, 2 µM; remark: listed apart in the source
[20] = as §1, with “WLS-073” for “Z-024”, “human” for “pig”, “ERS12561749” for “ERS12561823”; conditions: 2 µM
Note: call rule not given here.

Structure (SMILES)	Bacterial Biotransformation [1]	Bacterial Biotransformation [2]	Bacterial Biotransformation [3]	Bacterial Biotransformation [4]	Bacterial Biotransformation [5]	Bacterial Biotransformation [6]	Bacterial Biotransformation [7]	Bacterial Biotransformation [8]	Bacterial Biotransformation [9]	Bacterial Biotransformation [10]	Bacterial Biotransformation [11]	Bacterial Biotransformation [12]	Bacterial Biotransformation [13]	Bacterial Biotransformation [14]	Bacterial Biotransformation [15]	Bacterial Biotransformation [16]	Bacterial Biotransformation [17]	Bacterial Biotransformation [18]	Bacterial Biotransformation [19]	Bacterial Biotransformation [20]
CSc1ccc2c(c1)C(N1CCN(C)CC1)Cc1ccccc1S2.O=C(O)/C=C\C(=O)O (configuration not stated)	Compound metabolized	Compound metabolized	Compound metabolized	Compound metabolized	Compound metabolized	Compound NOT metabolized	Compound NOT metabolized	Compound NOT metabolized	Compound NOT metabolized	Compound NOT metabolized	Compound NOT metabolized	Compound NOT metabolized	Compound NOT metabolized	Compound NOT metabolized	Compound NOT metabolized	–	–	–	–	–
CCc1oc2ccccc2c1C(=O)c1cc(Br)c(O)c(Br)c1 [BENZBROMARONE]	Compound NOT metabolized	Compound NOT metabolized	Compound NOT metabolized	Compound metabolized	Compound metabolized	Compound metabolized	Compound metabolized	Compound NOT metabolized	Compound metabolized	Compound metabolized	Compound metabolized	Compound metabolized	Compound metabolized	Compound metabolized	Compound NOT metabolized	Compound NOT metabolized	Compound NOT metabolized	Compound metabolized	Compound metabolized	–
CN1CCC[C@@H]1CCO[C@](C)(c1ccccc1)c1ccc(Cl)cc1.O=C(O)/C=C/C(=O)O [CLEMASTINE FUMARATE]	Compound NOT metabolized	Compound NOT metabolized	Compound NOT metabolized	Compound metabolized	Compound NOT metabolized	Compound metabolized	Compound metabolized	Compound NOT metabolized	Compound NOT metabolized	Compound metabolized	Compound NOT metabolized	Compound NOT metabolized	Compound metabolized	Compound metabolized	Compound NOT metabolized	–	–	Compound metabolized	Compound metabolized	Compound NOT metabolized
COc1cc2nc(N3CCN(C(=O)C4COc5ccccc5O4)CC3)nc(N)c2cc1OC.CS(=O)(=O)O (configuration not stated) [DOXAZOSIN MESYLATE]	Compound NOT metabolized	Compound NOT metabolized	Compound NOT metabolized	Compound metabolized	Compound NOT metabolized	Compound NOT metabolized	Compound NOT metabolized	Compound metabolized	Compound metabolized	Compound NOT metabolized	Compound metabolized	Compound NOT metabolized	Compound metabolized	Compound metabolized	Compound NOT metabolized	Compound NOT metabolized	Compound NOT metabolized	Compound metabolized	Compound NOT metabolized	–
CCOC(=O)[C@H](CCc1ccccc1)N[C@@H](C)C(=O)N1CCC[C@H]1C(=O)O.O=C(O)/C=C\C(=O)O [ENALAPRIL MALEATE]	Compound metabolized	–	Compound NOT metabolized	Compound NOT metabolized	Compound NOT metabolized	Compound NOT metabolized	Compound NOT metabolized	Compound NOT metabolized	Compound NOT metabolized	Compound NOT metabolized	Compound NOT metabolized	Compound NOT metabolized	Compound NOT metabolized	Compound NOT metabolized	Compound NOT metabolized	–	–	Compound NOT metabolized	Compound NOT metabolized	Compound NOT metabolized
CC(C)(C)NC(=O)[C@H]1CC[C@H]2[C@@H]3CC[C@H]4NC(=O)C=C[C@]4(C)[C@H]3CC[C@]12C [FINASTERIDE]	Compound metabolized	Compound metabolized	Compound NOT metabolized	Compound metabolized	Compound metabolized	Compound metabolized	Compound metabolized	Compound metabolized	Compound metabolized	Compound metabolized	Compound NOT metabolized	Compound metabolized	Compound metabolized	Compound metabolized	Compound metabolized	–	Compound NOT metabolized	Compound metabolized	Compound metabolized	Compound metabolized
CN1[C@@H]2CC[C@H]1C[C@@H](OC(=O)[C@H](CO)c1ccccc1)C2 [HYOSCYAMINE]	Compound NOT metabolized	–	Compound NOT metabolized	Compound metabolized	–	–	–	–	–	–	Compound NOT metabolized	–	–	–	Compound NOT metabolized	Compound NOT metabolized	Compound NOT metabolized	–	Compound metabolized	Compound NOT metabolized
C#C[C@]1(OC(C)=O)CC[C@H]2[C@@H]3CCC4=CC(=O)CC[C@@H]4[C@H]3CC[C@@]21C [NORETHINDRONE ACETATE]	Compound metabolized	–	–	Compound metabolized	Compound metabolized	Compound metabolized	–	Compound metabolized	–	Compound metabolized	Compound metabolized	Compound metabolized	Compound metabolized	Compound metabolized	Compound NOT metabolized	Compound metabolized	Compound metabolized	Compound metabolized	–	Compound metabolized
Cc1cc2c(s1)Nc1ccccc1N=C2N1CCN(C)CC1 [OLANZAPINE]	Compound NOT metabolized	Compound NOT metabolized	Compound NOT metabolized	–	Compound NOT metabolized	Compound NOT metabolized	Compound NOT metabolized	Compound NOT metabolized	Compound NOT metabolized	Compound metabolized	Compound NOT metabolized	Compound NOT metabolized	Compound metabolized	Compound metabolized	–	Compound NOT metabolized	Compound NOT metabolized	Compound NOT metabolized	Compound metabolized	–
COc1ccc(Cc2nccc3cc(OC)c(OC)cc23)cc1OC [PAPAVERINE]	Compound metabolized	Compound NOT metabolized	Compound NOT metabolized	Compound metabolized	Compound metabolized	Compound metabolized	Compound metabolized	Compound NOT metabolized	Compound metabolized	Compound metabolized	Compound metabolized	Compound metabolized	Compound metabolized	Compound metabolized	Compound NOT metabolized	Compound NOT metabolized	Compound NOT metabolized	Compound metabolized	Compound metabolized	–
